Measured values reported in patent US20240285808A1, “MOLECULAR PROBES FOR IN VIVO DETECTION OF ALDEHYDES” (The General Hospital Corporation, priority 2021, published 2024).

Tested on: IRI kidney cortex
Experiment: MR imaging of kidney ischemia-reperfusion (IRI) model
Format: in vivo, mouse
Conditions: for Change in longitudinal relaxation time (ΔT1): 4 h post injection, n = 11
Method: Kidney Ischemia-Reperfusion (IRI) Model:
Male C57BL/6 mice (10-12 weeks old; Charles River Laboratories) were anesthetized with ketamine/xylazine (100/10 mg/kg; IP). Animals were then placed prone while maintaining rectal temperature strictly at 37° C. with a feedback-regulated heating pad. The skin incision was performed on the left lower flank while adhering to strict aseptic procedures. After accessing the retroperitoneal space, the left kidney, and the left renal artery-vein was identified. Ischemia was induced by applying a micro serrefine clip onto the renal artery and vein. Successful ischemia was visually confirmed by a gradual uniform darkening of the kidney. The clamp was removed 26 minutes later, and a rapid change verified successful reperfusion in kidney color from a dark maroon to a healthy dark pink. The skin was closed using surgical staples, and animals were returned to their home cages. Analgesia was provided by buprenorphine (0.1 mg/kg, SC, bid for three days starting 1 hour before IRI surgery).
Animals were imaged 14 days after IRI and were euthanized after imaging. The right and left kidneys were removed, cortex and medulla regions of each kidney were separated for further analysis.
For kidney imaging, a series of three-dimensional inversion-recovery FLASH images were acquired at baseline and 4 hours after Mn-16 administration with inversion recovery times of 7, 307, 557, 707, 857, 1507, 3007, 5007, and 7007 msec. (TR/TE/FA=5 see/72 msec, field of view (FOV) […], dimension 128×128, slice thickness 0.7 mm).
For kidney imaging analysis, longitudinal relaxation time (T1) was obtained by fitting inversion recovery data to a T1 relaxation equation (M0×(1−2 exp(−TI/T1))) and change in T1 (ΔT1) was calculated by subtracting T1 measured prior to probe injection (T1pre) from T1 measured after injection (T1post), eq 23.

For `NOC(CCC(=O)NCCCN1CCN(CC(=O)[O-])Cc2cccc(n2)CN(CC(=O)[O-])CC1)C(=O)O.[Mn+2]` (stereo not shown) [Mn-16], the Mn concentration (IRI kidney cortex) was 90 nmol/g, the “Change in longitudinal relaxation time (ΔT1)” value (IRI kidney cortex) was -395 ms and the Mn concentration (contralateral cortex) was 60 nmol/g. The “Change in longitudinal relaxation time (ΔT1)” value (contralateral cortex) was -230 ms.
